Results reported in US10501453B2, “Benzothiazole or benzoxazole compounds as SUMO activators” (Icahn School of Medicine at Mount Sinai, priority 2012, dated 2019).

Experiments:
[1] = tested on: Yorkshire pigs with severe heart failure; test: Contractility in Yorkshire pigs with severe heart failure secondary to myocardial infarction; type: in vivo, pig; conditions: 5 mg/kg, intracoronary
Procedure: Example 1 was dosed in Yorkshire pigs at 5 mg/kg with severe heart failure secondary to myocardial infarction.
The experimental protocols complied with the National Institutes of Health Guide for the Care and Use of Laboratory Animals and standards of United States regulatory agencies. They were approved by the Institutional Animal Care and Use Committee of the Mount Sinai School of Medicine. Yorkshire pigs were pre-medicated using intramuscular Telazol™ (8.0 mg/kg; tiletamine hydrochloride and zolazepam hydrochloride; Fort Dodge Animal Health, Fort Dodge, Iowa). After the placement of an intravenous line, animals were intubated and ventilated with 100% oxygen. General anesthesia was maintained with intravenous propofol (8-10 mg/kg/hr) throughout the procedure.
The animals underwent a 2-hour balloon occlusion of the proximal LAD (left anterior descending coronary artery) followed by reperfusion. Ten minutes before MI creation a continuous infusion of 20 mEq potassium acetate, 75 mg amiodarone, and 2 mg atropine was initiated to reduce ischemia related arrhythmia. […] Arterial pressure, blood oxygen saturation (SpO2), and electrocardiogram were monitored closely throughout the procedure. […]
Cardiac performance was evaluated at one month after MI. […] Cardiac function was monitored and recorded for 3 hours after injection.

SUMO E1 enzyme = biological target: T1, SUMO E1 enzyme (Homo sapiens, UniProt Q9UBT2); test: ATP-dependent activation of SUMO-1 (ATP hydrolysis); type: biochemical
T1 sequence (Q9UBT2 1-640): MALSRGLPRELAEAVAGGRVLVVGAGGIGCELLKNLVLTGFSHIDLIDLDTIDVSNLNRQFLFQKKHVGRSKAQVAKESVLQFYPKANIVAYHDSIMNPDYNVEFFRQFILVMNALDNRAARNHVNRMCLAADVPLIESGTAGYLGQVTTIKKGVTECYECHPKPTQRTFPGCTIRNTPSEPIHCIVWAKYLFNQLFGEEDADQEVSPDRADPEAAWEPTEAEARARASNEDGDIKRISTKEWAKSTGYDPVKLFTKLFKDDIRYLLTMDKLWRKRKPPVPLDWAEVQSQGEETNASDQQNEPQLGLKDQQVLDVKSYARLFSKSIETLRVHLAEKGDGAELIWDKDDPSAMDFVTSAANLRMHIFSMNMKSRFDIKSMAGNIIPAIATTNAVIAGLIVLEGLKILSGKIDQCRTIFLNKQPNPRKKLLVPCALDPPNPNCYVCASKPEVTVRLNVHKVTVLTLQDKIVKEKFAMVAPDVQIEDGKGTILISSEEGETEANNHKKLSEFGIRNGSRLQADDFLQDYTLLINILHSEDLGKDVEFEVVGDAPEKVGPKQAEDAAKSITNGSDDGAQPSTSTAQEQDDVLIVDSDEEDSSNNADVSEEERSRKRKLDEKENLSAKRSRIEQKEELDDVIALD
T1 sequence (Q9UBE0 1-346): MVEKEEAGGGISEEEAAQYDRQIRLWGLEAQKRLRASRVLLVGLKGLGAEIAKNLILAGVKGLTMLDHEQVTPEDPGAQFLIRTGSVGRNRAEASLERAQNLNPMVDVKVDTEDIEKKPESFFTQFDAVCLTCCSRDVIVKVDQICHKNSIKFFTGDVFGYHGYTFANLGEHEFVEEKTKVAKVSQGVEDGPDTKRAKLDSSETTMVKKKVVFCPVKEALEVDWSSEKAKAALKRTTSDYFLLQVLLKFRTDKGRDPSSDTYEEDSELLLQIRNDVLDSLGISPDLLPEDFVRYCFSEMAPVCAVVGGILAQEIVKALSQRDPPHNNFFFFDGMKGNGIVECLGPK

[2] = Pharmacokinetic analysis in mice; conditions: mouse, in vivo, ip; murine model, 10 mg/kg intraperitoneal dose
Procedure: FIG. 12 depicts the pharmacokinetic analysis of the compound of Example 1 in mice at a 10 mg/kg intraperitoneal dose.

TAC mice = test: Hemodynamics in mouse model of heart failure (TAC); type: in vivo; conditions: for ESPVR slope: baseline 3.1; for Tau(1/2): baseline 7.7; for Pmax: baseline 111.1; for HR: baseline 422.1; for +dP/dt Max: baseline 4738.7; for index of contractility ESPVR, dose dependence: infusion of increasing doses
Procedure: Hemodynamics were measured to evaluate the acute effect of Example 1 infusion on the cardiac function of the mouse model of HF. In the first set of experiments, mice were exposed to pressure overload by thoracic aortic constriction (TAC) or sham operation and received either EXAMPLE 1 or vehicle. At two months post-TAC animals developed HF. […] In addition, the positive chronotropic effect of dobutamine was no longer observed in TAC mice (FIG. 9). Following cannulation of the carotid artery and external jugular vein, infusion of EXAMPLE 1 or vehicle was performed as described in Method section. Pressure and conductance catheters were introduced in the LV through the carotid artery. Pressure and volume measurements were made simultaneously and pressure volume curves were constructed as the vehicle or EXAMPLE 1 were infused.
Hemodynamic data were obtained in 1 mg of EXAMPLE 1-treated failing hearts at 30 min and 60 min after compound treatment. […] The improvement occurred within 30 minutes after treatment and maintained for 60 minutes after treatment. […] The effects of EXAMPLE 1 on various hemodynamic parameters are shown in FIG. 9b and Table S1. dP/dt max increased with increasing concentration of EXAMPLE 1 while Tau a parameter of relaxation decreased an indication of enhanced relaxation.
A model of heart failure was created by transaortic constriction in the mouse for 6-8 weeks. Following cannulation of the carotid artery and external jugular vein, infusion of Example 1 or vehicle was performed as shown in the protocol in FIG. 16. Pressure and conductance catheters were introduced in the left ventricle through the carotid artery. Pressure and volume measurements were made simultaneously and pressure volume curves were constructed as the vehicle or Example 1 was infused.

[3] = failing hearts, 1 mg, 30 min and 60 min after treatment

COc1ccc(-c2nnc(Nc3nc4c(OC)cccc4s3)o2)cc1 [Example 1, N-(4-methoxybenzo[d]thiazol-2-yl)-5-(4-methoxyphenyl)-1,3,4-oxadiazol-2-amine]
increase in contractility (as measured by dP/dt) [1]: 25-30% | EC50 (SUMO E1 enzyme): 40.5 ± 4.4 µM | Cmax [2]: 2240 nM | half-life [2]: 1.09 h | Tau (parameter of relaxation) with increasing concentration (TAC mice; TAC mice): decreased | dP/dt max with increasing concentration (TAC mice; TAC mice): increased | ESPVR slope (TAC mice; TAC mice, 0.1 mg/kg): 9.0 mmHg/A | Tau(1/2) (TAC mice; TAC mice, 0.1 mg/kg): 7.5 ms | Pmax (TAC mice; TAC mice, 0.1 mg/kg): 115.1 mmHg | HR (TAC mice; TAC mice, 0.1 mg/kg): 417.1 bpm | +dP/dt Max (TAC mice; TAC mice, 0.1 mg/kg): 4803.3 mmHg/sec | ESPVR slope (TAC mice; TAC mice, 1.0 mg/kg): 11.2 mmHg/A | Tau(1/2) (TAC mice; TAC mice, 1.0 mg/kg): 6.4 ms | Pmax (TAC mice; TAC mice, 1.0 mg/kg): 123.6 mmHg | HR (TAC mice; TAC mice, 1.0 mg/kg): 422.3 bpm | +dP/dt Max (TAC mice; TAC mice, 1.0 mg/kg): 5448.8 mmHg/sec | ESPVR slope (TAC mice; TAC mice, 10 mg/kg): 20.3 mmHg/A | Tau(1/2) (TAC mice; TAC mice, 10 mg/kg): 6.2 ± 0.4 ms | Pmax (TAC mice; TAC mice, 10 mg/kg): 124.5 mmHg | HR (TAC mice; TAC mice, 10 mg/kg): 455.1 bpm | +dP/dt Max (TAC mice; TAC mice, 10 mg/kg): 6229.4 mmHg/sec | index of contractility ESPVR, dose dependence (TAC mice; TAC mice): increase in the index of contractility ESPVR in a dose dependent fashion | index of contractility ESPVR, dose dependence (TAC mice; TAC mice, listed as EXAMPLE 1): increase in the index of contractility, ESPVR in a dose dependent manner | time the improvement was maintained after treatment (TAC mice; failing hearts, 1 mg): 60 min | time to improvement after treatment (TAC mice; failing hearts, 1 mg): ≤ 30 min | end systolic pressure-volume relationship (ESPVR) in the LV versus baseline (TAC mice; [3]): significantly steeper | rate of LV pressure rise (dP/dt max) versus baseline (TAC mice; [3]): increased cardiac contractility
